The Kinase Knowledgebase extract (Sharma et al. 2016)

Biological target: PIK3CG (human) (UniProt P48736)
Assay: Inhibition of PIK3CG Kinase Activity

PIK3CG (human), sequence (P48736 whole entry, looked up): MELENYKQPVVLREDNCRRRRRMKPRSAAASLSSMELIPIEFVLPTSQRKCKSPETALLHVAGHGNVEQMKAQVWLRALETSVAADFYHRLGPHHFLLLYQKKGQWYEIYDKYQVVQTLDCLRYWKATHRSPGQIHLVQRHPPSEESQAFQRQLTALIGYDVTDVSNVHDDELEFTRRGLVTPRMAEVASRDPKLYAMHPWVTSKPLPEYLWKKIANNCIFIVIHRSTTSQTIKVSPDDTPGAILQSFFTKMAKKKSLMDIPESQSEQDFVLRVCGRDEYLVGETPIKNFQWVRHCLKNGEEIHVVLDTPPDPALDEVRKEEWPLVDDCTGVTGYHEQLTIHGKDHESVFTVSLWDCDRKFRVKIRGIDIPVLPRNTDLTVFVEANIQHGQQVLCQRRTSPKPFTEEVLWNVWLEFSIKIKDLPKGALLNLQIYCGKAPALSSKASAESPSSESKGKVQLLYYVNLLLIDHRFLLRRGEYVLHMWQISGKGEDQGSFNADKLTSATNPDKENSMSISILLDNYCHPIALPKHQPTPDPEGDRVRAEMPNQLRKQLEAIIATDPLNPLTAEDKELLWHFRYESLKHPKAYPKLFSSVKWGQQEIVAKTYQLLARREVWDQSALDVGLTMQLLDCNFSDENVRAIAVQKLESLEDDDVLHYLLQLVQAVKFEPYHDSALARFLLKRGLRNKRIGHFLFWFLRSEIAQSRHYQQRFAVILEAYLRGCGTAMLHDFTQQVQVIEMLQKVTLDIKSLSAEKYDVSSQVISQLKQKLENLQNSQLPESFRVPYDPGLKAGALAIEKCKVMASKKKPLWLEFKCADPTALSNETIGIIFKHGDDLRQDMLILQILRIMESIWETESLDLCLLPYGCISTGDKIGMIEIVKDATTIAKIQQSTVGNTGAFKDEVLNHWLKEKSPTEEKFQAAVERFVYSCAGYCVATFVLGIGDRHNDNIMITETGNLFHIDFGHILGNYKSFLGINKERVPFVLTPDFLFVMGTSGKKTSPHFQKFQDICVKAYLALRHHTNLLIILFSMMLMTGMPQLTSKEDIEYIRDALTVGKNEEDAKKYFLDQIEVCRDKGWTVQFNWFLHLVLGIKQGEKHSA

SMILES | Ki [nM]
COc1cncc(-c2cc(C)c3c(n2)CN(c2ccn(CC(C)(C)O)n2)C3=O)c1 | < 100
C#CCn1cc(N2Cc3cc(-c4cnc(OC)c(OC)c4)ccc3C2=O)cn1 | < 100
COc1cc(-c2ccc3c(n2)CN(c2ccon2)C3=O)cnc1OC | < 100
CCNC(=O)c1cncc(-c2cc(C)c3c(n2)C(C)N(c2cnn(CC(F)(F)F)c2)C3=O)c1 (stereo not given) | < 100
COc1cc(-c2ccc3c(n2)[C@@H](C)N(c2ccn(C[C@H](C)O)n2)C3=O)cnc1OC | < 100
COc1cc(-c2ccc3c(n2)CN(c2cc(C)[nH]n2)C3=O)cnc1OC | < 100
CCOc1cncc(-c2cc(C)c3c(n2)C2(CCOC2)N(c2cnn(CC(F)(F)F)c2)C3=O)c1 (stereo not given) | < 100
COc1ncc(-c2cc(C)c3c(n2)CN(c2cn[nH]c2)C3=O)cc1OCC1CC1 | < 100
CCN(C)C(=O)COc1ccc(N2Cc3nc(-c4cnc(OC)c(OC)c4)ccc3C2=O)cn1 | 100 to 490
O=C1c2ccc(-c3cncc(OC(F)F)c3)nc2CN1c1cc[nH]n1 | 100 to 490
COc1cc(-c2cc(C)c3c(n2)CN(c2cccc(C4(C#N)CC4)c2)C3=O)cnc1OC | < 100
COCCn1cc(N2Cc3nc(-c4cnc(OC)c(OC)c4)ccc3C2=O)cn1 | < 100
CCOc1ncc(-c2cc(C)c3c(n2)[C@@]2(CCCO2)N(c2ccn(CC)n2)C3=O)cc1OC | 100 to 490
CCOc1cc(-c2cc(C)c3c(c2)C(C)N(c2cnn(CC(F)(F)F)c2)C3=O)cnc1OCC (stereo not given) | < 100
COc1cc(-c2ccc3c(n2)CN(c2cnn([C@@H](CO)C(F)(F)F)c2)C3=O)cnc1OC | < 100
CCn1ccc(N2C(=O)c3c(C)cc(-c4cncc(OCC(F)F)c4)nc3[C@@H]2C)n1 | 100 to 490
CCn1ccc(N2C(=O)c3c(C)cc(-c4cncc(OCC(F)F)c4)nc3C2C)n1 (stereo not given) | < 100
COc1ncc(-c2cc(C)c3c(n2)CN(c2cn[nH]c2)C3=O)cc1OC(C)C | < 100
Cc1cc(-c2cnc(C)c(OCC(F)(F)F)c2)nc2c1C(=O)N(c1cnn(CC(F)(F)F)c1)C2(C)C | < 100
COc1cncc(-c2cc(C)c3c(n2)C(C)N(c2ccn(CC(C)(C)F)n2)C3=O)c1 (stereo not given) | < 100

SMILES | Ki [nM]
COc1cc(-c2ccc3c(n2)C(N2CCOCC2)N(c2cnn(CC(F)(F)F)c2)C3=O)cnc1OC (stereo not given) | 100 to 490
COc1ncc(-c2cc(C)c3c(n2)C(C)(C)N(c2cnn(CC(F)(F)F)c2)C3=O)cc1C(=O)NC(C)CO (stereo not given) | < 100
COc1cc(-c2ccc3c(n2)CN(c2cnn(Cc4cccc5c4OCCCO5)c2)C3=O)cnc1OC | < 100
COc1cc(-c2ccc3c(n2)CN(c2cnn(Cc4ccc(Cl)nc4)c2)C3=O)cnc1OC | < 100
COc1cc(-c2ccc3c(n2)CN(c2cnn(Cc4ccncc4)c2)C3=O)cnc1OC | < 100
COc1cc(-c2cc(C)c3c(n2)CN(c2csc(C)c2)C3=O)cnc1OC | < 100
COc1cc(-c2ccc3c(n2)CN(c2cnn(CCC(=O)O)c2)C3=O)cnc1OC | < 100
COc1cc(-c2ccc3c(n2)CN(c2cnn(Cc4csc(C)n4)c2)C3=O)cnc1OC | < 100
CCN(CC)CCn1cc(N2Cc3nc(-c4cnc(OC)c(OC)c4)ccc3C2=O)cn1 | 100 to 490
Cc1cc(-c2cncc(OC(F)F)c2)nc2c1C(=O)N(c1cn[nH]c1)[C@@H]2C | < 100
Cc1cc(-c2cncc(OC(F)F)c2)nc2c1C(=O)N(c1cnn(C)c1)C2C (stereo not given) | < 100
COc1cc(-c2ccc3c(n2)CN(c2cnn(CC#N)c2)C3=O)cnc1OC | < 100
CCOc1ccnc(N2Cc3nc(-c4cnc(OC)c(OC)c4)cc(C)c3C2=O)c1 | < 100
CCCOc1cc(-c2cc(C)c3c(n2)CN(c2cn[nH]c2)C3=O)cnc1OC | < 100
COc1cc(-c2cc(C)c3c(n2)CN(c2ccnc(F)c2)C3=O)cnc1OC | < 100
Cc1cc(-c2cncc(OCC(F)F)c2)nc2c1C(=O)N(c1cnn(CC(F)F)c1)C2(C)C | < 100
COc1cc(-c2ccc3c(c2)CN(c2cnn(C)c2)C3=O)cnc1OC | 100 to 490
COc1cc(-c2ccc3c(n2)CN(c2cnn(Cc4ccc(CO)cc4)c2)C3=O)cnc1OC | < 100
CCn1ccc(N2C(=O)c3ccc(-c4cnc(OC)c(OC)c4)nc3C2C)n1 (stereo not given) | < 100
CCOC1c2nc(-c3cnc(OC)c(OC)c3)ccc2C(=O)N1c1cnn(CC(F)(F)F)c1 (stereo not given) | < 100

SMILES | Ki [nM]
CCC(O)c1ncc(N2Cc3nc(-c4cnc(OC)c(OC)c4)cc(C)c3C2=O)cn1 (stereo not given) | < 100
COc1cncc(-c2cc(C)c3c(n2)C(C)N(c2ccn(CC4CCCO4)n2)C3=O)c1 (stereo not given) | < 100
CCCn1cc(N2Cc3cc(-c4cnc(OC)c(OC)c4)ccc3C2=O)cn1 | 100 to 490
COCn1cc(N2Cc3cc(-c4cnc(OC)c(OC)c4)ccc3C2=O)cn1 | < 100
COc1ncc(-c2cc(C)c3c(n2)CN(c2ccn(C4COC4)n2)C3=O)cc1OC(C)C | < 100
COc1ncc(-c2cc(C)c3c(n2)C(C)(C)N(c2cnn(CC(F)(F)F)c2)C3=O)cc1C(=O)N[C@@H]1CCOC1 | < 100
COc1cc(-c2ccc3c(n2)CN(c2cnn(CC4CCCN4)c2)C3=O)cnc1OC (stereo not given) | 100 to 490
COc1cc(-c2ccc3c(n2)CN(c2cccc(CC#N)c2)C3=O)cnc1OC | < 100
CCc1cc(N2Cc3nc(-c4cnc(OC)c(OC)c4)ccc3C2=O)n[nH]1 | 100 to 490
COC(=O)Cc1cncc(N2Cc3nc(-c4cnc(OC)c(OC)c4)cc(C)c3C2=O)c1 | < 100
COc1cc(-c2ccc3c(n2)CN(c2cnn(C4CCCCC4O)c2)C3=O)cnc1OC (stereo not given) | 100 to 490
COc1cc(-c2ccc3c(n2)C(C)N(c2ccnc(C(C)(C)C#N)c2)C3=O)cnc1OC (stereo not given) | 100 to 490
COc1cc(-c2ccc3c(n2)CN(c2ccc(N4CCCC(CO)C4)nc2)C3=O)cnc1OC (stereo not given) | < 100
COc1cc(-c2ccc3c(n2)C(N2CC(OC)C2)N(c2cnn(CC(F)(F)F)c2)C3=O)cnc1OC (stereo not given) | 100 to 490
CCn1ccc(N2C(=O)c3c(C)cc(-c4cncc(OC)c4)nc3[C@@H]2C)n1 | < 100
COc1cc(-c2ccc3c(n2)CN(c2ccc(OCC#N)nc2)C3=O)cnc1OC | 100 to 490
Cc1cc(-c2cncc(OC(F)F)c2)nc2c1C(=O)N(c1cncc(C(C)(C)C#N)c1)C2 | < 100
COc1cncc(-c2cc(C)c3c(n2)C(C)(C)N(c2cc[nH]n2)C3=O)c1 | 100 to 490
COc1cc(-c2ccc3c(n2)CN(c2cnn(CCn4cccc4)c2)C3=O)cnc1OC | < 100

Second part, the compound after the results:

Ki [nM] | SMILES
< 100 | COc1cncc(-c2cc(C)c3c(n2)[C@H](C)N(c2cnn(CC(F)(F)F)c2)C3=O)c1
< 100 | CCc1ncc(-c2cc(C)c3c(n2)CN(c2cnn(CC(F)(F)F)c2)C3=O)cc1OC
100 to 490 | CCCCOCCOc1cncc(-c2cc(C)c3c(n2)CN(c2cnn(CC(F)(F)F)c2)C3=O)c1
< 100 | CCOc1cncc(-c2cc(C)c3c(n2)[C@](C)(OC)N(c2cnn(CC(F)(F)F)c2)C3=O)c1
< 100 | COc1ccc(-c2cc(C)c3c(n2)CN(c2cnn(CC(F)(F)F)c2)C3=O)cn1
< 100 | CCOc1ncc(-c2cc(C)c3c(n2)C(OC(C)C)N(c2cnn(CC(F)(F)F)c2)C3=O)cc1OC (stereo not given)
< 100 | COc1cncc(-c2cc(C)c3c(n2)C2(CCOC2)N(c2cnn(CC(F)(F)F)c2)C3=O)c1 (stereo not given)
100 to 490 | Cc1cc(-c2cncc(C(=O)N(C)C)c2)nc2c1C(=O)N(c1cnn(CC(F)(F)F)c1)C2(C)C
100 to 490 | COc1cncc(-c2cc(C)c3c(n2)[C@]2(CCCO2)N(c2cnn(CC(F)(F)F)c2)C3=O)c1
< 100 | COc1cc(-c2ccc3c(n2)C2(CC2)N(c2cnn(CC(F)(F)F)c2)C3=O)cnc1OC
< 100 | COc1ncc(-c2cc(C)c3c(n2)C(C)N(c2cnn(CC(F)(F)F)c2)C3=O)cc1C(=O)O (stereo not given)
< 100 | Cc1cc(-c2cncc(CO)c2)nc2c1C(=O)N(c1cnn(CC(F)(F)F)c1)C2
< 100 | CCc1cc(-c2cnc(OC)c(OC)c2)nc2c1C(=O)N(c1cnn(CC(F)(F)F)c1)C2
< 100 | CCC1(O)c2nc(-c3cnc(OC)c(OC)c3)cc(C)c2C(=O)N1c1cnn(CC(F)(F)F)c1 (stereo not given)
< 100 | COCCOc1ncc(-c2cc(C)c3c(c2)CN(c2cnn(CC(F)(F)F)c2)C3=O)cc1OC
< 100 | COc1cc(-c2cc(C)c3c(n2)CN(c2cnn(C[C@@H](C)O)c2)C3=O)cnc1OC
< 100 | COc1cncc(-c2cc(C)c3c(n2)[C@@H](C)N(c2cnn(CC(F)(F)F)c2)C3=O)c1
< 100 | CCO[C@@]1(C)c2nc(-c3cnc(OC)c(OC)c3)cc(C)c2C(=O)N1c1cnn(CC(F)(F)F)c1

Ki [nM] | SMILES
< 100 | Cc1cc(-c2cc(O)cc(OC(F)(F)F)c2)nc2c1C(=O)N(c1cnn(CC(F)(F)F)c1)C2
< 100 | CCOc1ncc(-c2cc(C)c3c(n2)C(CC)N(c2cnn(CC(F)(F)F)c2)C3=O)cc1OC (stereo not given)
< 100 | CCOc1ncc(-c2ccc3c(n2)C(C)N(c2cnn(CC(F)(F)F)c2)C3=O)cc1OC (stereo not given)
< 100 | CCOCCCOc1cc(-c2cc(C)c3c(n2)CN(c2cnn(CC(F)(F)F)c2)C3=O)cnc1OC
< 100 | COc1cncc(-c2cc(C)c3c(c2)CN(c2cnn(CC(F)(F)F)c2)C3=O)c1
< 100 | COc1ncc(-c2cc(C)c3c(c2)CN(c2cnn(CC(F)(F)F)c2)C3=O)nc1OC
100 to 490 | Cc1cc(-c2cncc(C(=O)NC3CC3)c2)nc2c1C(=O)N(c1cnn(CC(F)(F)F)c1)C2(C)C
< 100 | CCOc1cncc(-c2cc(C)c3c(n2)C(C)(OC)N(c2cnn(CC(F)(F)F)c2)C3=O)c1 (stereo not given)
< 100 | Cc1cc(-c2cncc(OC(F)F)c2)nc2c1C(=O)N(c1cnn(CC(F)(F)F)c1)C2C (stereo not given)
< 100 | CCCCOCCOc1cc(-c2cc(C)c3c(n2)CN(c2cnn(CC(F)(F)F)c2)C3=O)cnc1OC
< 100 | COc1ncc(-c2cc(C)c3c(n2)CN(c2cnn(CC(F)(F)F)c2)C3=O)cc1Cl
< 100 | COc1cc(-c2cc(C)c3c(n2)C(O)(OC)N(c2cnn(CC(F)(F)F)c2)C3=O)cnc1OC (stereo not given)
< 100 | COc1ncc(-c2ccc3c(n2)CN(c2cnn(CC(F)(F)F)c2)C3=O)cc1OC(F)F
< 100 | COc1cc(-c2cc(Cl)c3c(n2)CN(c2cnn(CC#N)c2)C3=O)cnc1OC
< 100 | COc1cc(-c2cc(C)c3c(n2)CN(c2ccc(C(F)(F)F)nc2)C3=O)cnc1OC
< 100 | COc1cccc(-c2cc(C)c3c(n2)CN(c2cnn(CC(F)(F)F)c2)C3=O)n1
< 100 | COc1cc(OC)cc(-c2cc(C)c3c(n2)C(C)N(c2cnn(CC(F)(F)F)c2)C3=O)c1 (stereo not given)
< 100 | CCn1cc(N2Cc3nc(-c4cnc(OC)c(OC(F)F)c4)ccc3C2=O)cn1
